Measured values reported in US20240262814A1, “MODULATORS OF TREX1” (Constellation Pharmaceuticals, Inc., priority 2021, published 2024).

How the values were obtained:
human TREX2 = biological target: T1, human TREX2 (Homo sapiens, UniProt Q9BQ50); assay: hTREX2 Biochemical Assay (selectivity hTREX1 vs hTREX2); settings: biochemical selectivity for hTREX1 vs hTREX2
T1 construct: human TREX2 (residues M44-A279, expressed in E. coli); made in house; host or cells: E. coli
T1 sequence (Q9BQ50 44-279 isoform Q9BQ50-1): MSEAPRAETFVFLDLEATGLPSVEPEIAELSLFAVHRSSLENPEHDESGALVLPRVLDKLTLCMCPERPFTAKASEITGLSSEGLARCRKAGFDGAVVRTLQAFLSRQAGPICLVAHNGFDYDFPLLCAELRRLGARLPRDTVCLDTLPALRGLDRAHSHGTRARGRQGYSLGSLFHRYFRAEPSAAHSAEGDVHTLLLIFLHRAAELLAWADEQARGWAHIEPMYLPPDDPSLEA
Procedure: Degradation of the dsDNA liberates free fluorophore to produce a fluorescent signal. Specifically, 7.5 p L of N-terminally His-Tev tagged human TREX2 (residues M44-A279, expressed in E. coli and purified in house) in reaction buffer (50 mM Tris, 150 mM NaCl, 2 mM DTT, 0.1 mg/mL BSA, 0.01% (w/v) Tween-20, 5 mM MgCl2, pH 7.4) was added to a 384-well Black ProxiPlate Plus (PerkinElmer) which already contained compound (150 nL) at varying concentrations as a 10 point dose-response in DMSO. The plate was incubated at 25° C. for 4 hours. Reactions were initiated by adding 7.5 μL of dsDNA substrate (Strand A: 5′ TEX615/GCT AGG CAG 3′; Strand B: 5′ CTG CCT AGC/IAbRQSp (IDT)) in reaction buffer. Final concentrations were 50 pM TREX2, 60 nM dsDNA substrate in reaction buffer with 1.0% DMSO (v/v). After 18 hours at 25° C., reactions were quenched by the addition of 2 μL of 500 mM EDTA. Final concentrations in the quenched reaction mixture were 44 pM TREX2, 53 nM DNA and 59 mM EDTA in a volume of 17 μL. After a 5-minute incubation at room temperature, plates were read in an EnVision plate reader (PerkinElmer) measuring fluorescence at 615 nm following excitation w/ 570 nm light. IC50 values were calculated by comparing the measured fluorescence at 615 nm relative to control wells pre-quenched w/ stop buffer (100% inhibition) and no inhibitor (0% inhibition) controls as using non-linear least square four parameter fits and either Genedata or GraphPad Prism (GraphPad Software, Inc.).

human TREX1 = biological target: T2, human TREX1 (Homo sapiens, UniProt Q9NSU2); assay: hTREX1 Biochemical Assay (fluorescence, dsDNA substrate degradation); settings: full length human TREX1, 4 h pre-incubation, 18 h reaction at 25° C.
T2 construct: N-terminally His-Tev tagged full length human TREX1; made in house; host or cells: E. coli
T2 sequence (Q9NSU2 1-314): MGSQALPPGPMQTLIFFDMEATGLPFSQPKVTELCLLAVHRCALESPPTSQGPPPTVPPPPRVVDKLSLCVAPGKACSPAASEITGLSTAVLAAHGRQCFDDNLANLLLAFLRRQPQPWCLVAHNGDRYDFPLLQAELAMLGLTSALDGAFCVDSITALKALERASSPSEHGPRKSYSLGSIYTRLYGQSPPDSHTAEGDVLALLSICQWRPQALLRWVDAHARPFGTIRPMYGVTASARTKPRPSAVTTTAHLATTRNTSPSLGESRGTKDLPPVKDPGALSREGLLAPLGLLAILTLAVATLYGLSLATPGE
Procedure: (§1) Degradation of the dsDNA liberates free fluorophore to produce a fluorescent signal. Specifically, 7.5 μL of N-terminally His-Tev tagged full length human TREX1 (expressed in E. coli and purified in house) in reaction buffer (50 mM Tris, 150 mM NaCl, 2 mM DTT, 0.1 mg/mL BSA, 0.01% (w/v) Tween-20, 5 mM MgCl2, pH 7.4) was added to a 384-well Black ProxiPlate Plus (PerkinElmer) which already contained compound (150 nL) at varying concentrations as a 10 point dose-response in DMSO. The plate was incubated at 25° C. for 4 hours. Reactions were initiated by adding 7.5 μL of dsDNA substrate (Strand A: 5′ TEX615/GCT AGG CAG 3′; Strand B: 5′ CTG CCT AGC/IAbRQSp (Integrated DNA Technologies)) in reaction buffer. Final concentrations were 4 pM TREX1, 60 nM dsDNA substrate in reaction buffer with 1.0% DMSO (v/v). After 18 hours at 25° C., reactions were quenched by the addition of 2 p L of 500 mM EDTA. Final concentrations in the quenched reaction were 3.5 pM TREX1, 53 nM DNA and 59 mM EDTA in a volume of 17 μL. After a 5-minute incubation at room temperature, plates were read in an EnVision plate reader (PerkinElmer) measuring fluorescence at 615 nm following excitation w/ 570 nm light. IC50 values were calculated by comparing the measured fluorescence at 615 nm relative to control wells pre-quenched w/ EDTA (100% inhibition) and no inhibitor (0% inhibition) controls as using non-linear least square four parameter fits and either Genedata or GraphPad Prism (GraphPad Software, Inc.).

mouse TREX1 = biological target: T3, mouse TREX1 (Mus musculus, UniProt Q91XB0); assay: mTREX1 Biochemical Assay (fluorescence, dsDNA substrate degradation); settings: full length mouse TREX1, 4 h pre-incubation, 18 h reaction at 25° C.
T3 construct: N-terminally His-Tev tagged full length mouse TREX1; made in house; host or cells: E. coli
T3 sequence (Q91XB0 1-314): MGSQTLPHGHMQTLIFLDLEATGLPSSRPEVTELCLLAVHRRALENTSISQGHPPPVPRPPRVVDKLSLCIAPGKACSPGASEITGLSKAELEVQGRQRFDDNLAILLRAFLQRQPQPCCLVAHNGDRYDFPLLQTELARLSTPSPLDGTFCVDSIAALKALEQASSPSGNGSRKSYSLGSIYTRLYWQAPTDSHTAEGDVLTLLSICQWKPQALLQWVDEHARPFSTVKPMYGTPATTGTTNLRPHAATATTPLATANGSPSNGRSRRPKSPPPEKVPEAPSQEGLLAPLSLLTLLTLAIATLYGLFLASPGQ
Procedure: as §1, with “Specifically, 7.5 p L of N-terminally” for “Specifically, 7.5 μL of N-terminally”, “full length mouse TREX1 (expressed” for “full length human TREX1 (expressed”, “concentrations were 6 pM TREX1,” for “concentrations were 4 pM TREX1,”, “reaction were 5.3 pM TREX1,” for “reaction were 3.5 pM TREX1,”, “of 17 p L. After a” for “of 17 μL. After a”

SMILES	hTREX1 vs hTREX2 selectivity (human TREX2)	IC50 (human TREX1) [nM]	IC50 (mouse TREX1) [nM]
CC(c1nc(C(=O)Nc2cnoc2)c(O)c(=O)n1C)C(c1ccccc1Cl)c1ccccc1C#N (single isomer, unassigned) [Example 10 Isomer 2]	B (B = 25 to 50 fold selective for hTREX1)	10 to 100	> 10
CC(c1nc(C(=O)Nc2cnoc2)c(O)c(=O)n1C)C(c1ccccc1)c1cc(Cl)ccc1C#N (single isomer, unassigned) [Example 8 Isomer 3]	C (C = >50 fold selective for hTREX1)	1 to 10	> 10
CC(c1nc(C(=O)Nc2cnoc2)c(O)c(=O)n1C)C(c1ccccc1)c1ccccc1C#N (single isomer, unassigned) [Example 3 Isomer 3]	A (A = <25 fold selective for hTREX1)	> 100	> 10
C[C@H](c1nc(C(=O)Nc2cnoc2)c(O)c(=O)n1C)[C@H](c1ccccc1)c1ccccc1C(F)(F)F (single isomer, unassigned) [Example 14 Isomer 1, 5-Hydroxy-N-(isoxazol-4-yl)-1-methyl-6-oxo-2-(1-phenyl-1-(2-(trifluoromethyl)phenyl)propan-2-yl)-1,6-dihydropyrimidine-4-carboxamide]	A (A = <25 fold selective for hTREX1)	> 100	> 10
C[C@H](c1nc(C(=O)Nc2cnoc2)c(O)c(=O)n1C)[C@H](c1ccccc1)c1ccccc1Cl (single isomer, unassigned) [Example 2 Isomer 2, 2-(1-(2-chlorophenyl)-1-phenylpropan-2-yl)-5-hydroxy-N-(isoxazol-4-yl)-1-methyl-6-oxo-1,6-dihydropyrimidine-4-carboxamide]	A (A = <25 fold selective for hTREX1)	10 to 100	> 10
CC(c1nc(C(=O)Nc2cnoc2)c(O)c(=O)[nH]1)C(c1ccccc1C#N)c1ccccc1C#N (single isomer, unassigned) [Example 5 Isomer 1, 2-(1,1-bis(2-cyanophenyl)propan-2-yl)-5-hydroxy-N-(isoxazol-4-yl)-6-oxo-1,6-dihydropyrimidine-4-carboxamide]	B (B = 25 to 50 fold selective for hTREX1)	< 1	1 to 10
CC(c1nc(C(=O)Nc2cnoc2)c(O)c(=O)n1C)C(c1ccccc1)c1ccccc1C#N (single isomer, unassigned) [Example 3 Isomer 2]	A (A = <25 fold selective for hTREX1)	> 100	> 10
CC(c1nc(C(=O)Nc2cnoc2)c(O)c(=O)n1C)C(c1ccccc1)c1ccc(Cl)cc1C#N (single isomer, unassigned) [Example 9 Isomer 2]	B (B = 25 to 50 fold selective for hTREX1)	> 100	> 10
CC(c1nc(C(=O)Nc2cnoc2)c(O)c(=O)n1C)C(c1ccccc1)c1ccc(F)cc1C#N (single isomer, unassigned) [Example 7 Isomer 4]	B (B = 25 to 50 fold selective for hTREX1)	< 1	1 to 10
Cn1c(CC(c2ccccc2)c2ccccc2)nc(C(=O)Nc2cnoc2)c(O)c1=O [Example A, 2-(2,2-diphenylethyl)-5-hydroxy-N-(isoxazol-4-yl)-1-methyl-6-oxo-1,6-dihydropyrimidine-4-carboxamide]	A (A = <25 fold selective for hTREX1)	> 100	> 10
CC(c1nc(C(=O)Nc2cnoc2)c(O)c(=O)n1C)C(c1ccc(F)cc1F)c1ccccc1C#N (single isomer, unassigned) [Example 13 Isomer 2]	C (C = >50 fold selective for hTREX1)	< 1	1 to 10
C[C@H](c1nc(C(=O)Nc2cnoc2)c(O)c(=O)n1C)[C@H](c1ccccc1)c1ccc(C(=O)N(C)C)cc1C#N (single isomer, unassigned) [Example 16 Isomer 3, 2-(1-(2-cyano-4-(dimethylcarbamoyl)phenyl)-1-phenylpropan-2-yl)-5-hydroxy-N-(isoxazol-4-yl)-1-methyl-6-oxo-1,6-dihydropyrimidine-4-carboxamide]	A (A = <25 fold selective for hTREX1)	> 100	> 10
CC(c1nc(C(=O)Nc2cnoc2)c(O)c(=O)n1C)C(c1ccc(F)c(F)c1)c1ccccc1C#N (single isomer, unassigned) [Example 12 Isomer 4]	A (A = <25 fold selective for hTREX1)	10 to 100	> 10
